These results are taken from patent publication US6441023B1 (American Home Products Corporation, priority 1997, dated 2002).

Type in all cases: biochemical
For one assay, the target named is T1, MMP 9 (Homo sapiens, UniProt P14780).
T1 construct: from tissue; host or cells: human neutrophils
Put plainly: In vitro gelatinase assay (human neutrophil gelatinase B). Conditions: read-out: MMP 9 IC 50. On the procedure: The assay is based on the cleavage of the thiopeptide substrate ((Ac-Pro-Leu-Gly(2 mercapto-4 methyl-pentanoyl)-Leu-Gly-OEt), Bachem Bioscience) by the enzyme, gelatinase, releasing the substrate product which reacts calorimetrically with DTNB ((5,5′-dithio-bis(2-nitro-benzoic acid)). The enzyme activity is measured by the rate of the color increase.
The thiopeptide substrate is made up fresh as a 20 mM stock in 100% DMSO and the DTNB is dissolved in 100% DMSO as a 100 mM stock and stored in dark at room temperature. Both the substrate and DTNB are diluted together to 1 mM with substrate buffer (50 mM HEPES pH 7.5, 5 mM CaCl2) before use. The stock of human neutrophil gelatinase B is diluted with assay buffer (50 mnM HEPES pH 7.5, 5 mM CaCl2, 0.02% Brij) to a final concentration of 0.15 mnM.
The increase in OD405 is plotted and the slope of the line is calculated which represents the reaction rate.

A further assay deals with T2, TACE (Homo sapiens, UniProt P78536).
T2 construct: purchased Immunex
Put plainly: Procedure for measuring TACE inhibition. The arrangement: TACE % inhibition: dose or concentration left out as unconfirmed. Conditions: for IC50: read-out: TACE IC 50. On the procedure: Using 96-well black microtiter plates, each well receives a solution composed of 10 μL TACE (Inmunex, final concentration 1 μg/mL), 70 μL Tris buffer, pH 7.4 containing 10% glycerol (final concentration 10 mM), and 10 μL of test compound solution in DMSO ([…], DMSO concentration <1%) and incubated for 10 minutes at room temperature. The reaction is initiated by addition of a fluorescent peptidyl substrate (final concentration 100 μM to each well and then shaking on a shaker for 5 sec.
The reaction is read (excitation 340 nm, emission 420 nm) for 10 min. and the increase in fluorescence over time is plotted as a linear line. The slope of the line is calculated and represents the reaction rate.
The mean (xtsem) of the control rate is calculated and compared for statistical significance (p<0.05) with drug-treated rates using Dunnett's multiple comparison test.

Another assay deals with MMP 13 (Homo sapiens, UniProt P45452). Description: MMP 13 inhibition (manual). Conditions: read-out: MMP 13 IC 50.
The target in the next assay is T3, MMP 1 (Homo sapiens, UniProt P03956).
T3 construct: human recombinant fibroblast collagenase (truncated, mw=18,828, WAR, Radnor)
T3 sequence (P03956 100-269 limits assumed): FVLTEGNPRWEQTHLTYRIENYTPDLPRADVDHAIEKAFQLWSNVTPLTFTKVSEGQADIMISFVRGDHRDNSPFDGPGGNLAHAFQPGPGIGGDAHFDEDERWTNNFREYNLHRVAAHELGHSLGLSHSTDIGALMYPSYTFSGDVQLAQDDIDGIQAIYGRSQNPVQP
Description: In vitro collagenase assay (human recombinant fibroblast collagenase). Conditions: read-out: MMP 1 IC 50. On the procedure: The assay is based on the cleavage of a peptide substrate ((Dnp-Pro-Cha-Gly-Cys(iNe)-His-Ala-Lys(NMa)-NH2), Peptide International, Inc.) by collag,enase releasing the fluorescent NMa group which is quantitated on the fluorometer. Dnp quenches the NiIa fluorescence in the intact substrate. […] Substrate is dissolved in methanol and stored frozen in 1 mM aliquots. Collagenase is stored frozen in buffer in 25 µM aliquots. For the assay, substrate is dissolved in HCBC buffer to a final concentration of 10 μM and collagenase to a final concentration of 5 nM. Compounds are dissolved in methanol, DMSO, or HCBC. The methanol and DMSO are diluted in HCBC to <1.0%. Compounds are added to the 96 well plate containing enzyme and the reaction is started by the addition of substrate.
The slope of the line is calculated and represents the reaction rate.
The mean (x±sem) of the control rate is calculated and compared for statistical significance (p<0.05) with drug-treated rates using Dunnett's multiple comparison test.

T1 sequence (P14780 94-707): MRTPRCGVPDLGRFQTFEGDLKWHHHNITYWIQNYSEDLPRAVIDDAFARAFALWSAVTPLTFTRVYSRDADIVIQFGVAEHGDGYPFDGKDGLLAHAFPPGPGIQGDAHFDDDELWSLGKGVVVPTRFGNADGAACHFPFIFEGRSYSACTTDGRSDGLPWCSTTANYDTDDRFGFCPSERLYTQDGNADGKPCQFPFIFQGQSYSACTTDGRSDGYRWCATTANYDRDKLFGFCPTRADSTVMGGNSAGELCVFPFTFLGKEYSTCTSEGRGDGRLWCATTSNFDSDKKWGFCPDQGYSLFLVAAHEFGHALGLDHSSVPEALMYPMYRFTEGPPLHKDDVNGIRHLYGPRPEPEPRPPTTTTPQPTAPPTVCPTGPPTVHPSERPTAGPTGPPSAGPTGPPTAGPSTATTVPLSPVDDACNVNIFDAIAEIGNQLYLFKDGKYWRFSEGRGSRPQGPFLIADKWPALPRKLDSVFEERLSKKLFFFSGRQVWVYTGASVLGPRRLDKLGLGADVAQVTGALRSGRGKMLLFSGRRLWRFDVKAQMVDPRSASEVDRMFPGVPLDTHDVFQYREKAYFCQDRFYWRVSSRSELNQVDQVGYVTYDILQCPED
T2 sequence (P78536 215-824): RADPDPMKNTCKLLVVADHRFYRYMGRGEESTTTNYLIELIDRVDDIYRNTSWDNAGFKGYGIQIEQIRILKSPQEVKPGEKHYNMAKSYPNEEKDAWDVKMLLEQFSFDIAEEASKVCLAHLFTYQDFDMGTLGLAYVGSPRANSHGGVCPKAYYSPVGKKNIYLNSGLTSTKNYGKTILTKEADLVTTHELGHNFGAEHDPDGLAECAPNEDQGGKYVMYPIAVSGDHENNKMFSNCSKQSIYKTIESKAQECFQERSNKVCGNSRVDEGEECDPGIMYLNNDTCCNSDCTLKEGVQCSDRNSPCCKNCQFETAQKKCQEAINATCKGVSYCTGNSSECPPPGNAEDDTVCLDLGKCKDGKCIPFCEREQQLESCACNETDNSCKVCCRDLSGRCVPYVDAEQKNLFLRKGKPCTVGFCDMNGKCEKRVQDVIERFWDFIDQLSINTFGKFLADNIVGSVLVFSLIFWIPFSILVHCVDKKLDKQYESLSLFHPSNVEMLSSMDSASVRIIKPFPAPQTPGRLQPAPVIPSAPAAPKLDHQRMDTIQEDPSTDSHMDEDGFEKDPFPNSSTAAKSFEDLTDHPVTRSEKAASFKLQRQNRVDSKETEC

For the molecule “1-(Bromo-benzyl)-4-(4-methoxy-benzenesulfonyl)-piperidine-4-carboxylic acid hydroxyamide [Example 90]”, the IC50 on MMP 9 came out at 10.3 nM; on TACE, 71.9 nM. As to “2-(4-Fluoro-benzenesulfonyl)-2-but-2-ynyl-hexynoic acid hydroxyamide [Example 78]”, the IC50 at MMP 9 stood at 560 nM; at MMP 13, 34 nM. Moreover, the “TACE % inhibition at 1 micromolar” value on TACE worked out at 24.58%.

On to “5-Methyl-2-(3-methyl-but-2-enyl)-2-(toluene-4-sulfonyl)-hexenoic acid hydroxyamide [Example 42]”, for which the IC50 was found to be 50.9 nM on MMP 9, 6.2 nM at MMP 13 and 36.5 nM on TACE.

As to `COc1ccc(SC(C)(Cc2ccccc2)C(=O)NO)cc1` (centres unmarked) [Example 1, N-Hydroxy-2-(4-methoxy-phenylsulfanyl)-2-methyl-3-phenyl-propionamnide], the IC50 was 560 nM at MMP 9 and 193 nM on MMP 13. Also, the “TACE % inhibition at 1 micromolar” value on TACE amounted to 31.62%. Turning to `COc1ccc([S+]([O-])C(C)(Cc2ccccc2)C(=O)NO)cc1` (centres unmarked) [Example 5, N-Hydroxy-2-(4-methoxy-benzenesulfmyl)-2-methyl-3-phenyl-propionamide], the “TACE % inhibition at 1 micromolar” value at TACE turned out to be 25%. Turning to `COc1ccc(S(=O)(=O)C(Cc2ccccc2)C(=O)NO)cc1` (centres unmarked) [Example 9, N-Hydroxy-2-(4-methoxy-benzenesulfonyl)-3-phenyl-propionarmide], the “TACE % inhibition at 1 micromolar” value on TACE was found to be 20.30%. In the case of `COc1ccc(S(=O)(=O)C(C)(Cc2ccc(OCCN(C(C)C)C(C)C)cc2)C(=O)NO)cc1` (centres unmarked) [Example 20, N-Hydroxy-2-(4-methoxy-benzenesulfonyl)-2-methy-3-[4-(2-N,N-diisopropylamino-ethoxy)-phenyl]-propionamide], the “TACE % inhibition at 1 micromolar” value on TACE came out at 31%. On to `COc1ccc(S(=O)(=O)C(C)(Cc2ccc(OCCCN3CCN(c4cccc(Cl)c4)CC3)cc2)C(=O)NO)cc1` (centres unmarked) [Example 23, 3-(4-{3-[4-(3-Chloro-phenyl)-piperain-1-yl]-propoxy}-phenyl)-N-hydroxy-2-(4-methoxy-benzenesulfonyl)-2-methyl-propionamide], for which the “TACE % inhibition at 1 micromolar” value at TACE came out at 40.6%. For `COc1ccc(S(=O)(=O)C(C)(Cc2cccc(OCCN3CCOCC3)c2)C(=O)NO)cc1` (centres unmarked) [Example 30, N-Hydroxy-2-(4-methoxy-benzenesulfonyl)-2-methyl-3-[3-(2-morpholin-1-yl-ethoxy)-phenyl]-propionamide], the “TACE % inhibition at 1 micromolar” value at TACE is reported as 25.2%. Consider `COc1ccc(S(=O)(=O)C(CCCCOc2ccccc2)(Cc2cccnc2)C(=O)NO)cc1` (centres unmarked) [Example 68, 2-(4-Methoxy-benzenesulfonyl)-6-phenoxy-2-pyridin-3-yhnethyl-hexanoic acid hydroxyamide], for which the values for the IC50 at MMP 9, at MMP 13 and on TACE were 29 nM, 27 nM and 522 nM, respectively. In the case of `CCCCCC#CCC(CC#CCCCCC)(C(=O)NO)S(=O)(=O)c1ccc(OC)cc1` [Example 71, 2-(4-methoxy-benzenesulfonyl)-2-oct-2-ynyl-decffynoic acid hydroxyamide], at TACE, the “TACE % inhibition at 1 micromolar” value is 42.21%. On to `CC#CCC(CC#CC)(C(=O)NO)S(=O)(=O)c1ccc(OC)cc1` [Example 72, 2-(4-Methoxy-benzenesulfonyl)-2-but-2-ynyl-hextynoic acid hydroxyamide], for which the “TACE % inhibition at 1 micromolar” value on TACE amounted to 51.64%. For the molecule `C#CCC(CC#C)(C(=O)NO)S(=O)(=O)c1ccc(OC)cc1` [Example 73, 2-(4-Methoxy-benzenesulfonyl)-2-prop-2-ynyl-pentynoic acid hydroxyamde], the “TACE % inhibition at 1 micromolar” value at TACE was 20.17%.

For the molecule `COc1ccc(S(=O)(=O)C(CC=C(C)C)(CC=C(C)C)C(=O)NO)cc1` [Example 79, 2-(4-Methoxy-benzenesulfonyl)-5-methyl-2-(3-methyl-but-2-enyl)-hexenoic acid hydroxyamide], the IC50 amounted to 25 nM at MMP 1, 0.54 nM at MMP 9 and 805 nM at TACE. Take `COc1ccc(S(=O)(=O)C2(C(=O)NO)CCN(CCCOc3ccccc3)CC2)cc1` [Example 105, 4-(4-Methoxy-benzenesulfony)-1-(3-phenoxy-propyl)-pipendine-4-carboxyllc acid hydroxyamide]: at TACE, the “TACE % inhibition at 1 micromolar” value is 50.2%.

On to `CCCCCCC(Sc1cccc(C(=O)NO)c1)C(=O)NO` (centres unmarked) [Example 184], for which, on TACE, the TACE % inhibition stood at 24.8%. On to `CCCCCCC(C(=O)NO)[S+]([O-])c1cccc(C(=O)NO)c1` (centres unmarked) [Example 188, 3-(1-Hydroxycarbamoyl-heptylsulfmyl)-benzoicacid hydroxyamide], for which the “TACE % inhibition at 1 µM” value at TACE is 16.2%. `CCCCOc1ccc(S(=O)(=O)C2(C(=O)NO)CCN(Cc3ccc(OCCN4CCCCC4)cc3)CC2)cc1` [Example 242, 4-(4-Butoxy-benzenesulfonyl)-1-[4-(2-piperidin-1-yl-ethoxy)-benzyl]-piperidine-4-carboxylic acid hydroxyamide]: the results for the IC50 on MMP 1, at MMP 9 and on TACE were 1950 nM, 2 nM and 581 nM, respectively. Consider `CCCCOc1ccc(S(=O)(=O)C2(C(=O)NO)CCN(Cc3cccc(OCCN4CCOCC4)c3)CC2)cc1` [Example 243, 4(4-Butoxy-benzenesulfonyl)-1-[3-(2-morpholinyl-1-ylthoxy)-benzyl]-piperidine-4-carboxylic acid hydroxyamide], for which the IC50 was found to be 2180 nM on MMP 1 and 506 nM at TACE. On to `CN1CCC(C(=O)NO)(S(=O)(=O)c2ccc(Oc3ccc(Cl)cc3)cc2)CC1` [Example 249, 4-[4-(4-chloro-phenoxy)-benzenesulfonyl]1-methyl-piperidine-4-carboxylic acid hydroxyamide], for which the figures for the IC50 at MMP 9, on MMP 13 and at TACE were 2 nM, 1.6 nM and 270 nM, respectively. Consider `CC(C)CCOc1ccc(S(=O)(=O)C2(C(=O)NO)CCN(Cc3ccccc3)CC2)cc1` [Example 255, 1-Benzyl-4-[4-(3-methyl-butoxy)-benzenesulfonyl]-piperidine-4-carboxylic acid hydroxyamide], for which the IC50 on MMP 13 came to 1.5 nM; at TACE, 565 nM.

On to `CCCCOc1ccc(S(=O)(=O)C2(C(=O)NO)CCN(Cc3cccc(OC)c3)CC2)cc1` [Example 260, 4-(4-butoxy-benzenesulfonyl)-1-(3-methoxy-benzyl)-piperidine-4-carboxylic acid hydroxyamide], for which the values for the IC50 at MMP 1, on MMP 9 and at TACE were 1490 nM, 2.9 nM and 272 nM, respectively. Consider `COc1ccc(S(=O)(=O)C2(C(=O)NO)CCN(Cc3ccc(-c4cccs4)cc3)CC2)cc1` [Example 261, 4-(4-Methoxy-benzenesulfonyl)-1-(thiophen-2-yl-benzyl)-piperidine-4-carboxylic acid hydroxyamide], for which the IC50 was determined as 513 nM at MMP 1 and 10.9 nM on MMP 9. Consider `COc1ccc(S(=O)(=O)C2(C(=O)NO)CCN(Cc3ccc(-c4ccccn4)cc3)CC2)cc1` [Example 262, 4-(4-methoxy-benzenesulfonyl)-1-(4-pyridin-2-yl-benzyl)-piperidine-4-carboxylic acid hydroxyamide], for which the IC50 at MMP 1 was 422 nM; at MMP 9, 6.1 nM; on TACE it was 298 nM.

Regarding “(1-Hydroxycarbamoyl-propane-1 -sulfanyl)-propionic acid hydroxyamide [Example 122]”, the “TACE % inhibition at 1 µM” value at TACE is listed as 3.1%.
